# Results from patent publication US11439648B2, “Use of topical BRAF inhibitor compositions for treatment of radiation dermatitis” (Lutris Pharma Ltd., priority 2019, dated 2022).
# Tested on: MIA PaCa2 K-ras cells
# Assay: Proliferation of MIA PaCa cells (ATPlite proliferation kit)
# Assay type: cell-based
# Conditions: after 72 hours; concentration giving the highest proliferation (range 0.002 μM to 10 μM); starvation medium; average of 6 wells; presented as percent of over-proliferation vs DMSO control
# Procedure: In this example, effect of the compounds on proliferation of MIA PaCa2 K-ras cells was studied. It was expected that the compounds that induce ERK phosphorylation would also induce proliferation of Mia PaCa cells.
# The cells were seeded in starvation medium at 5000 cells/well in a 96 wells plate for 24 hours at 37° C., 5% CO2. The tested compounds were added at different concentrations ranging from 0.002 μM to 10 μM. The controls were untreated cells and vehicle of 0.1% DMSO. The cells were incubated at 37° C., 5% CO2, for 72 hours and then the proliferation was tested using the ATPlite proliferation kit (Perkin-Elmer). Each result represents an average of 6 wells. The results are presented as the percent of over-proliferation compared to the DMSO control.
# The concentration of the compounds that provided the highest proliferation was compared to DMSO. DMSO was calculated as 100%.
row,Compound,% proliferation compared to the DMSO control [%]
1,Cc1ccc2c(Nc3ccc(Cl)cc3)nccc2c1Nc1ncccc1-c1ncnc2[nH]cnc12 [C-1],30
2,Cc1ccc2c(Nc3cccc(OC(F)(F)F)c3)nccc2c1Nc1ncccc1-c1ncnc2[nH]cnc12 [LUT014],116
3,CCCS(=O)(=O)Nc1ccc(F)c(C(=O)c2c[nH]c3ncc(-c4ccc(Cl)cc4)cc23)c1F [Vemurafenib],12
